Biological target: plasmin (Homo sapiens)
Test: The compound was tested for inhibition of human plasmin

Row | Compound | Ki [nM]
1 | Cc1cc2[nH]c(-c3cccc(-c4ccccc4)c3O)cc2cc1C(=N)N [2-(2-Hydroxy-biphenyl-3-yl)-6-methyl-1H-indole-5-carboxamidine] | 210
2 | N=C(N)c1ccc2[nH]c(-c3cccc(-c4ccccc4)c3O)cc2c1Cl [4-Chloro-2-(2-hydroxy-biphenyl-3-yl)-1H-indole-5-carboxamidine] | 3000

Reference: BindingDB's records for doi:10.1021/jm010244+ (Axys Pharmaceuticals, 2001)
